Test results taken from patent US10959433B2, “Use of cationic steroidal antimicrobials for sporicidal activity” (BRIGHAM YOUNG UNIVERSITY, priority 2017, dated 2021).

Tests used:
[1] = system: vegetative form of B. subtilis; assay: Viability (CFU) assay, vegetative form; type: cell-based, Bacillus subtilis ATCC 6051; conditions: RT, incubation time 240 min
Procedure: (§1) A viability assay of bacterial spores in the presence of a CSA compound was performed according to the protocol presented by Ghosh and Setlow. Ghosh, S. and P. Setlow, Isolation and characterization of superdormant spores of Bacillus species. J Bacteriol, 2009. 191(6): p. 1787-97. Spore suspensions in PBS were brought to […] and incubated with various concentrations of CSA-13. To evaluate the effect of treatment time on the killing properties of the antibiotic, incubation was performed for 15, 30, 60, 120 and 240 min, respectively. To investigate the effect of temperature on sporicidal properties, incubation at room temperature (RT) and at 70° C. was performed. After incubation, the plates were transferred to ice and suspensions were diluted 10- to 1000-fold in PBS. Then, 10 μL aliquots were spotted on LB agar plates for overnight culture at 37° C. and CFUs were determined. Cell survival, after exposure to the tested agent, was expressed as percent of control.
FIG. 4 includes graphs showing decreased survival of CSA-13-treated B. subtilis spores. FIG. 4, panels A-C show decline in the survival of B. subtilis culture after incubation with various concentrations of CSA-13. FIG. 4, panels D-F show Level of metabolic activity observed in ceragenin (CSA)-treated spore samples exposed to appropriate environmental conditions when compared to untreated control. […]

B. subtilis spores [2] = assay: Viability (CFU) assay of bacterial spores; type: cell-based, Bacillus subtilis ATCC 6051
Procedure: (§2) This example studied the ability of a CSA compound (e.g., CSA-13) to kill sporulated bacterial, namely Bacillus subtilis ATCC 6051 spores. To prepare Bacillus subtilis ATCC 6051 spores, bacteria were grown on LB (Luria-Bertani) agar plates without antibiotics at 37° C. for 72 h. Bacteria were harvested, re-suspended in ice-cold phosphate buffered saline (PBS) solution and purified by triple centrifugation (12 000×g, 10 min, 4° C.). The spore suspension was heat treated (75° C., 15 min) to remove remaining vegetative cells, cooled, stored in water at 4° C. and protected from light until analysis. […] Zhang, P., P. Setlow, and Y. Li, Characterization of single heat-activated Bacillus spores using laser tweezers Raman spectroscopy. Opt Express, 2009. 17(19): p. 16480-91. All spores used in this work were free of vegetative cells (>98%), as determined by staining cells using Schaeffer and Fulton Spore Stain Kit (Sigma-Aldrich, St Louis, Mo., USA). Additionally, to confirm the formation of spores during preparation, purified samples were investigated using transmission electron microscopy (TEM, Tecnai G2 X-TWIN, FEI, USA).
as §1
FIG. 4 includes graphs showing decreased survival of CSA-13-treated B. subtilis spores. FIG. 4, panels A-C show decline in the survival of B. subtilis culture after incubation with various concentrations of CSA-13. FIG. 4, panels D-F show Level of metabolic activity observed in ceragenin (CSA)-treated spore samples exposed to appropriate environmental conditions when compared to untreated control. Samples were incubated at RT (panels A, D for vegetative form and panels B, E for spore form, respectively) and at 70° C. (panels C, F) for 15 (white squares), 30 (grey circles), 60 (black circles), 120 (white triangles) and 240 (grey diamonds) minutes. […]

[3] = system: vegetative cells of B. subtilis; assay: MTT assay of metabolic activity, vegetative cells; type: cell-based, Bacillus subtilis; conditions: RT (FIG. 4, panel D)
Procedure: (§3) As an additional confirmation of results, the presence of a metabolically active fraction of cells was investigated using MTT assay. After incubation of spores with various concentrations of CSA-13 in a non-growing medium (PBS), 20 μL of MTT solution (thiazolyl blue tetrazolium bromide, Sigma-Aldrich, St Louis, Mo., USA, 5 mg/mL) and 100 μL of LB medium broth were added. Incubation at 37° C. was continued for 8 h. Medium was removed, and 100 μL of dimethyl sulfoxide solution (DMSO) was added to dissolve the MTT precipitate. Cells were allowed to stand at room temperature (RT) for 10 min with shaking. Absorbance values were detected at a wavelength of 570 nm using a microplate spectrophotometer. Absorbance values obtained in control spores cultures (without a tested agent) were taken as 100%. As positive controls, 1 M HCl (for spore treatment at RT) and 70% ethanol (for spore treatment at 70° C.) were employed. The average of all the experiments was presented in comparison to the level of metabolic activity detected in non-treated B. subtilis suspension. Incubation of both vegetative cells and spores of B. subtilis was performed for 15, 30, 60, 120 and 240 min.

B. subtilis spores [4] = assay: MTT assay of metabolic activity, spores; type: cell-based, Bacillus subtilis; conditions: LB broth 37° C. 8 h after treatment at RT or 70° C. (FIG. 4, panels E, F)
Procedure: as §3, with “Incubation of both vegetative cells and spores of B. subtilis was performed for 15, 30, 60, 120 and 240 min.” left out
The results of viability testing largely correlate with data obtained in the MTT assay. […] The incubation of non-treated spores in LB broth at 37° C. results in reactivation of metabolic activity confirmed by increasing formazan reduction and subsequent rise in an absorbance value. […]

B. subtilis spores [5] = assay: Spore germination by optical density (OD600); type: cell-based, Bacillus subtilis; conditions: 10 to 100 μg/mL, 1 h at RT in PBS, then LB broth, OD600 for 60 min (FIG. 5, panel A)
Procedure: To further assess germination processes in antibiotic-treated samples, a spectrophotometric method was employed. Isolated spores were incubated at RT for 1 h in PBS with concentrations of CSA-13 ranging from 10 to 100 μg/mL. Then 100 μL of LB broth was added, and optical densities at 600 nm (OD600) were monitored, using a microplate reader (Synergy H1, BioTek, VT, USA), for 60 min. FIG. 5 includes graphs showing inhibitory effect of CSA-13 on B. subtilis spore germination assessed by the measurement of optical density for spore suspension with increasing concentrations of the antibiotic (10 μg/mL—white squares; 20 μg/mL—white diamonds; 50 μg/mL—black triangles; 100 μg/mL—black diamonds), when compared with control (CT—grey circles) (panel A). Release of rhodamine 6G from external layers of B. subtilis spores after treatment with 20 μg/ml of CSA-13 (black square) and vancomycin (VAN; grey square) (panel B).

[6] = system: external layers of B. subtilis spores; assay: Release of rhodamine 6G from the surface of spores; type: cell-based, Bacillus subtilis
Procedure: The release of rhodamine 6G absorbed on the surface of Bacillus spores was evaluated using the Maesaki method (Maesaki, S., et al., Rhodamine 6G efflux for the detection of CDR1-overexpressing azole-resistant Candida albicans strains. J Antimicrob Chemother, 1999. 44(1): p. 27-31) with minor modifications. To stain cells with rhodamine 6G, the dye was added to a final concentration of 10 μM for 10 min. Non-absorbed dye was removed by centrifugation for 2 min at 10 000×g. Next, stained cells were washed and CSA-13 at 20 μg/mL was added. After incubation for 10, 30, 60 and 120 min, supernatant was collected by centrifugation and absorption at 527 nm was measured. The total concentration of rhodamine 6G released from the surface of spores was calculated using a standard concentration curve. The level of antibiotic-induced release was presented as the difference between the concentration of rhodamine 6G released from treated spores and control samples.

[7] = system: membrane of vegetative and spore form of B. subtilis; assay: Affinity of FITC-labeled CSA-13 to cell membranes (fluorimetric); type: binding, Bacillus subtilis; conditions: FITC-labeled CSA-13, 20 μg/mL
Procedure: To assess the affinity/binding of CSA-13 for the outer bacterial membrane, CSA-13 was labeled with fluorescein isothiocyanate (FITC) and added to the suspensions of vegetative cell and spores, to a final concentration of 20 μg/mL. […] To evaluate whether affinity of CSA-13 is influenced by the surface electrical properties of cells, zeta potentials of vegetative bacteria and spore suspensions were assessed using Zetasizer Nano ZS (Malvern Instruments, United Kingdom). Bacterial and spore cultures were brought to OD600˜0.1 in PBS buffer (pH=7). To evaluate the effect of the ceragenin on zeta potential value, CSA-13 was added at the concentration of 100 μg/mL to the spore suspension, incubated for 15 minutes and transferred to a cuvette. Measurements were conducted at 25° C.

B. subtilis spores [8] = assay: TEM of treated spores (morphology, membrane permeability); type: cell-based, Bacillus subtilis; conditions: 50 μg/mL and 200 μg/mL, 1 hour, RT and 70° C. (FIG. 3, panels C-F)
Procedure: as §2
To visualize alterations in morphology and membrane permeability of treated spores, a suspension of spores (OD600˜0.5) in distilled water was treated with CSA-13 at concentrations of 50 μg/mL and 200 μg/mL and incubated for 1 hour at RT and 70° C. […]

B. subtilis spores [9] = assay: Confocal Raman spectroscopy of single spores (CaDPA content); type: cell-based, Bacillus subtilis; conditions: 50 μg/mL and 200 μg/mL
Procedure: For Raman spectroscopy analyses, spores of B. subtilis were suspended in 100 μL of distilled water and treated with CSA-13 (50 μg/mL and 200 μg/mL) for 1 hour at RT and 70° C. Samples were transferred to polished calcium fluoride (CaF2) optical windows (Crystran, United Kingdom) and dried at 60° C. Raman spectra were recorded using a Renishaw InVia Raman spectrometer equipped with an optical confocal microscope, an air-cooled laser emitting at 532 nm, and an CCD detector thermoelectrically cooled to −70° C. A dry Leica N PLAN EPI (100×, NA 0.85) objective was used. The power of the laser at the sample position was ca. 1.5 mW. A sum of 20 scans with integration time of 20 seconds and a resolution of 0.5 cm^−1 was collected. The spectrometer was calibrated using the Raman scattering line generated by an internal silicon plate. A laser spot (diameter of ca. 760 nm) was focused on a single spore and then the measurement was performed. All spectra were smoothed and baseline corrected. Results from one representative experiment are provided.
FIGS. 7 and 8 show Raman spectra collected from B. subtilis spores incubated at RT and at 70° C., respectively, with corresponding confocal microscopy images. Panels A1 and A2—control sample, panels B1 and B2—50 μg/mL of CSA-13, panels C1 and C2—200 μg/mL of CSA-13. Asterisks denote CaDPA bands well separated from bands of spore biocomponents. […]

## CCCCCCCCNCCC[C@@H](C)[C@H]1CC[C@H]2[C@@H]3[C@H](OCCCN)C[C@@H]4C[C@H](OCCCN)CC[C@]4(C)[C@H]3C[C@H](OCCCN)[C@]12C [CSA-13]
[1]
  concentration at which all vegetative cells were killed: 15 µg/mL
B. subtilis spores [2]; 70° C. versus room temperature
  effect of elevated temperature on sporicidal activity: elevated temperature significantly intensifies the activity
B. subtilis spores [2]; 70° C., incubation 120 and 240 minutes
  concentration killing bacterial spores: 5 µg/mL
B. subtilis spores [2]; 70° C., incubation 15 min (FIG. 4, panel C)
  concentration sufficient to inhibit the growth of spores: 20 µg/mL
B. subtilis spores [2]; RT, regardless of incubation time (15-240 min) (FIG. 4, panel B)
  concentration giving total inhibition of spore growth potential: 100 µg/mL
[3]
  concentration at which vegetative cells showed no detectable metabolism: 20 µg/mL
B. subtilis spores [4]
  metabolic activity of treated spores after exposure to favorable conditions: only a small fraction of spores was able to resume proper metabolic activity
B. subtilis spores [5]
  effect on spore germination (OD600): strong interference in the germination
[6]; 20 μg/mL of each
  rhodamine 6G release compared with vancomycin: significantly higher than that of vancomycin
[6]; 20 μg/mL, 10-120 min (FIG. 5, panel B)
  release of rhodamine 6G from spores: resulted in the release of dye
[7]
  affinity for the external layers of spores: high affinity
[7]; recorded 15 min (FIG. 6, panel A)
  affinity for spores versus vegetative form: greater affinity for the spores than for the vegetative form of bacteria
B. subtilis spores [8]
  change of spore structure in TEM micrographs: disruption of spore membrane architecture
B. subtilis spores [9]; 1 hour (FIG. 8)
  percentage of CaDPA negative spores, 70° C. versus room temperature: greater compared to sample treated at room temperature
B. subtilis spores [9]; 1 hour, versus untreated
  number of CaDPA positive spores after treatment: significant reduction of the number of CaDPA positive cells
